What follows are compounds tested against Metabotropic glutamate receptor 2 (Homo sapiens) (UniProt Q14416) (assay: Negative allosteric modulation of human mGluR2 receptor expressed in CHO cell membranes assessed as inhibition of glutamate responses after 30 mins by [35S]GTPgammaS binding assay).
Assay type: functional

Chain of Metabotropic glutamate receptor 2 (Homo sapiens) (Q14416 19-872 limits assumed): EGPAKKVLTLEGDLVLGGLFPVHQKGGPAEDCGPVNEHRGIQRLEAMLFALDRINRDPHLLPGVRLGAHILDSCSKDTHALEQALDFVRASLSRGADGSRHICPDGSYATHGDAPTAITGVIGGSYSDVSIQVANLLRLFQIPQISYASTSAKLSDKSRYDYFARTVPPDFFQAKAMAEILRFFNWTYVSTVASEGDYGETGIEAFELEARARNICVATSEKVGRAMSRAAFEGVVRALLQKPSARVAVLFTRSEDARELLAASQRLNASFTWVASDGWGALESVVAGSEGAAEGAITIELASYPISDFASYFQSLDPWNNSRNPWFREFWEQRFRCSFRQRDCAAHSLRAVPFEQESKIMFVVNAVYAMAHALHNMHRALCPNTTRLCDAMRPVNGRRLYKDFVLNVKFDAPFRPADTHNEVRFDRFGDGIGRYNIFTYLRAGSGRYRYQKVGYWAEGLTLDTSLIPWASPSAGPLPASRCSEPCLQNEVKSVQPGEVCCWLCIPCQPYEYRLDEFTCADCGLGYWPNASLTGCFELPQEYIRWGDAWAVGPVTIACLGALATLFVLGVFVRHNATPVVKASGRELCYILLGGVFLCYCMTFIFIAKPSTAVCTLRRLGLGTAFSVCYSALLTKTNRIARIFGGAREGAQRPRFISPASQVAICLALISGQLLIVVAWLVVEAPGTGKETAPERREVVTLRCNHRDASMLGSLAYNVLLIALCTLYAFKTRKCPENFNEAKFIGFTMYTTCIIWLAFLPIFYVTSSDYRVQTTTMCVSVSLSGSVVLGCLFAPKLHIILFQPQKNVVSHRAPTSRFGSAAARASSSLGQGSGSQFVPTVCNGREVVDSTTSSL

Point of comparison: `CCC1CN(c2ccc(C(F)(F)F)cc2)C(=O)c2c(-c3ccnc(C)c3)cnn21` (centres undefined), Emax 106%. Against it:
- C[C@H]1CN(c2ccc(C(F)(F)F)c(Cl)c2)C(=O)c2c(-c3ccnc(C#N)c3)cnn21 — higher, 109%
- Cc1cc(-c2cnn3c2C(=O)N(c2ccc(C(F)(F)F)cc2)C[C@@H]3C)ccn1 — the same, 106%
- Cc1cc(-c2cnn3c2C(=O)N(c2ccc(C(C)O)cc2)C[C@@H]3C)ccn1 (some centres undefined) — lower, 49%

Reference: ChEMBL document CHEMBL3421584, “Allosteric modulators: an emerging concept in drug discovery” (ACS Med Chem Lett, 2015)
